According to patent US9012493B2, “1-heterodiene derivative and pest control agent” (Nippon Soda Co., Ltd., priority 2009, dated 2015):

Assays:
Format in all cases: in vivo
[1] = tested on: Rice Armyworm (Mythimna Separata); assay: Efficacy test against rice armyworm, corn leaf dip; details: 125 ppm, emulsifiable concentrate diluted with water, corn leaves immersed, second instar larvae, after 5 days, 25° C.
Summary of the method: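 Corn leaves dipped 30 s in compound diluted to 125 ppm from an emulsifiable concentrate, air-dried, then offered to five second-instar larvae. Held at 25° C and 65% humidity; mortality scored after 5 days as dead/released ×100. Run in duplicate.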

[2] = tested on: Cotton Aphid (Aphis Gossypii); assay: Efficacy test against cotton aphid, spray on cucumber plant; details: 125 ppm, emulsifiable concentrate diluted with water, sprayed over cucumber plant with nymphs, after 5 days, 25° C.
Summary of the method: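 Cucumber plants (~10 days after sprouting) carrying nymphs deposited by cotton aphid adults over 1 day were sprayed with emulsifiable concentrate diluted to 125 ppm compound. Plants were kept at 25 °C and 65% humidity. Mortality after 5 days gave the insecticidal rate (dead/released ×100), from two replicates.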

[3] = tested on: Sweetpotato Whitefly (Bemisia Tabaci); assay: Efficacy test against sweetpotato whitefly, sprayed tomato leaf; details: 125 ppm, emulsifiable concentrate diluted with water, adults (type B), after 2 days, 25° C.
Summary of the method: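 Cut tomato leaves were sprayed with an emulsifiable concentrate diluted to 125 ppm compound, air-dried, then infested with seven pairs of type B adults. Leaves were held at 25 °C and 65% humidity, and mortality was counted after 2 days as dead/released × 100. The test was run twice.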

[4] = tested on: Twospotted Spider Mite (Tetranychus Urticae Koch); assay: Efficacy test against twospotted spider mite, spray on kidney bean plant; details: 125 ppm, wettable powder diluted with water, sprayed, female adults with resistance to an organophosphorus agent on kidney bean, after 3 days
Method: The wettable powder obtained according to Formulation of Formulation Example 1 was diluted with water so as to control the concentration of the compound to 125 ppm. Seventeen female adults of twospotted spider mite with resistance to an organophosphorus agent were inoculated on a first true leaf of a kidney bean plant (approximately 7 to 10 days after sprouting) sown in a 3 sun/size pot (9 cm). The diluted solution was sprayed. The pot was placed in a temperature-controlled room at a temperature of 25° C. and a humidity of 65%. After 3 days, the adulticidal rate was examined. The test was repeated twice.

CC(C)=C1CCC(=CSc2ccccc2)C(=Nc2ccc(C)cc2)S1 (mixture of isomers) [Compound 6-1]
100%: insecticidal rate [1] | insecticidal rate [2] | insecticidal rate [3] | adulticidal rate [4]

C=C1SC(=Nc2ccc(C)cc2)C(=CSc2ccccc2)CC1c1ccccc1 (racemic) [Compound 2-15]
100%: insecticidal rate [1] | insecticidal rate [2] | insecticidal rate [3] | adulticidal rate [4]

CC(C)=C1CCC(=C\Sc2ccccc2)/C(=N/c2ccc(Cl)cc2)S1 [Compound 2-2, (4-chloro-phenyl)-{6-isopropylidene-3-[1-phenylsulfanyl-(E)-methylidene]-tetrahydro-thiopyran-(2Z)-ylidene}-amine]
100%: insecticidal rate [1] | insecticidal rate [2] | insecticidal rate [3] | adulticidal rate [4]

CC/C=C1/CCC(=C\Sc2ccccc2)/C(=N/c2ccc(Cl)cc2)S1 [Compound 2-3]
100%: insecticidal rate [1] | insecticidal rate [2] | insecticidal rate [3] | adulticidal rate [4]

C=C1CCC(=CSc2ccccc2)C(=Nc2ccc(C)cc2)S1 [Compound 2-4]
100%: insecticidal rate [1] | insecticidal rate [2] | insecticidal rate [3] | adulticidal rate [4]

C=C1CCC(=CSc2ccc(F)cc2)C(=Nc2ccc(C)cc2)S1 [Compound 2-6]
100%: insecticidal rate [1] | insecticidal rate [2] | insecticidal rate [3] | adulticidal rate [4]

C=C1SC(=N\c2ccc(C)cc2)/C(=C/Sc2ccccc2)CC1(C)C [Compound 2-11, {5,5-dimethyl-6-methylene-3-[1-phenylsulfanyl-(E)-methylidene]-tetrahydro-thiopyran-(2Z)-ylidene}-p-tolyl-amine]
100%: insecticidal rate [1] | insecticidal rate [2] | insecticidal rate [3] | adulticidal rate [4]

C=C1SC(=Nc2ccc(Cl)cc2)C(=CSc2ccccc2)CC1(C)C [Compound 2-12]
100%: insecticidal rate [1] | insecticidal rate [2] | insecticidal rate [3] | adulticidal rate [4]

C=C1SC(=Nc2ccc(Cl)cc2)C(=CSc2ccc(F)cc2)CC1(C)C [Compound 2-13]
100%: insecticidal rate [1] | insecticidal rate [2] | insecticidal rate [3] | adulticidal rate [4]

C=C1CCC(=CSc2ccccc2)C(=[NH+]c2ccc(C)cc2)S1.F[B-](F)(F)F [Compound 2-14]
100%: insecticidal rate [1] | insecticidal rate [2] | insecticidal rate [3] | adulticidal rate [4]

C=C1SC(=Nc2ccc(C)cc2)C(=CSc2ccccc2)CC12CCCCC2 [Compound 2-17]
100%: insecticidal rate [1] | insecticidal rate [2] | insecticidal rate [3] | adulticidal rate [4]

C=C1SC(=Nc2ccc(C)cc2)C(=CSc2cccc(OC)c2)CC1(C)C [Compound 2-20]
100%: insecticidal rate [1] | insecticidal rate [2] | insecticidal rate [3] | adulticidal rate [4]

C=C1SC(=Nc2ccc(OC)c(C)c2)C(=CSc2ccccc2)CC1(C)C [Compound 2-34]
100%: insecticidal rate [1] | insecticidal rate [2] | insecticidal rate [3] | adulticidal rate [4]

C=C1SC(=Nc2ccc(Cl)c(Cl)c2)C(=CSc2ccccc2)CC1(C)C [Compound 2-35]
100%: insecticidal rate [1] | insecticidal rate [2] | insecticidal rate [3] | adulticidal rate [4]

C=C1SC(=Nc2cccc(C(F)(F)F)c2)C(=CSc2ccccc2)CC1(C)C [Compound 2-36]
100%: insecticidal rate [1] | insecticidal rate [2] | insecticidal rate [3] | adulticidal rate [4]

C=C1SC(=Nc2ccc(OC)cc2C)C(=CSc2ccccc2)CC1(C)C [Compound 2-40]
100%: insecticidal rate [1] | insecticidal rate [2] | insecticidal rate [3] | adulticidal rate [4]

C=C1SC(=Nc2ccc(OC)cc2C)C(=CSc2ccc(F)cc2)CC1(C)C [Compound 2-41]
100%: insecticidal rate [1] | insecticidal rate [2] | insecticidal rate [3] | adulticidal rate [4]

C=C1SC(=Nc2ccc(OC)cc2)C(=CSc2ccc(F)cc2)CC1(C)C [Compound 2-46]
100%: insecticidal rate [1] | insecticidal rate [2] | insecticidal rate [3] | adulticidal rate [4]

C=C1SC(=Nc2ccc(C)cc2)C(=CSc2ccc(F)cc2)CC1(C)C [Compound 2-48]
100%: insecticidal rate [1] | insecticidal rate [2] | insecticidal rate [3] | adulticidal rate [4]

C=C1SC(=Nc2ccc(OC)cc2)C(=CSc2ccccc2OC)CC1(C)C [Compound 2-49]
100%: insecticidal rate [1] | insecticidal rate [2] | insecticidal rate [3] | adulticidal rate [4]

C=C1SC(=Nc2ccc(C)cc2)C(=CSc2ccccc2)CC12CCOCC2 [Compound 2-56]
100%: insecticidal rate [1] | insecticidal rate [2] | insecticidal rate [3] | adulticidal rate [4]

C=C1SC(=Nc2ccc(C)cc2C)C(=CSc2ccccc2)CC1(C)C [Compound 2-64]
100%: insecticidal rate [1] | insecticidal rate [2] | insecticidal rate [3] | adulticidal rate [4]

C=C1SC(=Nc2ccc(C)cc2)C(=CSc2ccccc2)CC1CC (centres unmarked) [Compound 2-68]
100%: insecticidal rate [1] | insecticidal rate [2] | insecticidal rate [3] | adulticidal rate [4]

C=C1SC(=Nc2ccc(OC)cc2)C(=CSc2ccc(C#N)cc2)CC1(C)C [Compound 2-70]
100%: insecticidal rate [1] | insecticidal rate [2] | insecticidal rate [3] | adulticidal rate [4]

C=C1SC(=Nc2ccc(C)cc2)C(=CSc2cccs2)CC1(C)C [Compound 2-71]
100%: insecticidal rate [1] | insecticidal rate [2] | insecticidal rate [3] | adulticidal rate [4]

C=C1SC(=Nc2ccc(C)cc2)C(=CSc2ccc(C#N)cc2)CC1(C)C [Compound 2-72]
100%: insecticidal rate [1] | insecticidal rate [2] | insecticidal rate [3] | adulticidal rate [4]

C=C1SC(=Nc2ccc(C)cc2)C(=CSc2ccccc2)CC1CCC (centres unmarked) [Compound 2-75]
100%: insecticidal rate [1] | insecticidal rate [2] | insecticidal rate [3] | adulticidal rate [4]

C=C1SC(=Nc2ccc(C)cc2)C(=CSc2ccccc2)CC1C (centres unmarked) [Compound 2-76]
100%: insecticidal rate [1] | insecticidal rate [2] | insecticidal rate [3] | adulticidal rate [4]

C=C1SC(=Nc2ccc(C)cc2)C(=CSc2cccs2)CC1C (centres unmarked) [Compound 2-77]
100%: insecticidal rate [1] | insecticidal rate [2] | insecticidal rate [3] | adulticidal rate [4]

C=C1SC(=Nc2ccc(C)cc2)C(=CSc2ccsc2)CC1(C)C [Compound 2-78]
100%: insecticidal rate [1] | insecticidal rate [2] | insecticidal rate [3] | adulticidal rate [4]

C=C1SC(=Nc2ccc(C)cc2)C(=CSc2ccc(C)s2)CC1(C)C [Compound 2-79]
100%: insecticidal rate [1] | insecticidal rate [2] | insecticidal rate [3] | adulticidal rate [4]

C=C1SC(=Nc2ccc(C)cc2)C(=CSc2ccc(OC)s2)CC1(C)C [Compound 2-80]
100%: insecticidal rate [1] | insecticidal rate [2] | insecticidal rate [3] | adulticidal rate [4]

C=C1SC(=Nc2ccc(OC)cc2)C(=CSc2ccsc2)CC1(C)C [Compound 2-81]
100%: insecticidal rate [1] | insecticidal rate [2] | insecticidal rate [3] | adulticidal rate [4]

C=C1SC(=Nc2ccc(OC)cc2)C(=CSc2ccc(C)s2)CC1(C)C [Compound 2-83]
100%: insecticidal rate [1] | insecticidal rate [2] | insecticidal rate [3] | adulticidal rate [4]

C=C1SC(=Nc2ccc(C)cc2)C(=CSc2ccc(C(F)(F)F)cc2)CC1(C)C [Compound 2-90]
100%: insecticidal rate [1] | insecticidal rate [2] | insecticidal rate [3] | adulticidal rate [4]

C=C1SC(=Nc2ccc(C)cc2)C(=CSc2nc3ccccc3s2)CC1(C)C [Compound 2-94]
100%: insecticidal rate [1] | insecticidal rate [2] | insecticidal rate [3] | adulticidal rate [4]

C=C1SC(=Nc2ccc(C)cc2)C(=CSc2cccc(C(F)(F)F)c2)CC1(C)C [Compound 2-99]
100%: insecticidal rate [1] | insecticidal rate [2] | insecticidal rate [3] | adulticidal rate [4]

C=C1SC(=Nc2ccc(C)cc2)C(=CSc2ccccc2C(F)(F)F)CC1(C)C [Compound 2-100]
100%: insecticidal rate [1] | insecticidal rate [2] | insecticidal rate [3] | adulticidal rate [4]
